Measurements from article PMC10282731, “Pyrrolo[2,3-e]indazole as a novel chemotype for both influenza A virus and pneumococcal neuraminidase inhibitors” (RSC Advances, 2023).
Values after ≈ are worked out from the molar mass of the structure shown. Values joined by “and” are separate entries in the source; they are usually repeats but may differ in a detail not shown here. Equal entries are not always repeated. Where two headings read alike, the source gives them in different places. Marks after values point to notes of the source that are not given here.

How the values were obtained:
[1] = system: influenza A virus A/Jena/8178/09 (subtype A(H1N1)pdm09); assay: Influenza A virus-induced CPE inhibition assay in MDCK cells (A/Jena/8178/09); format: cell-based; conditions: A(H1N1)pdm09, 48 h, maximum 100 µM, n.a. = not active, read-out: IC50 (IAV) Jena/8178
[2] = system: neuraminidase of influenza A virus (IAV NA); assay: Human erythrocyte-based (hemagglutination-based) viral neuraminidase inhibition assay; format: biochemical, influenza A virus A/Jena/8178/09; conditions: human erythrocytes, 37 °C for 24 h, maximum 100 µM for test compounds
[3] = molecular target: T1, neuraminidase NanA of S. pneumoniae strain DSM20566 (Streptococcus pneumoniae, UniProt P62575); assay: Lectin-based hemagglutination NA inhibition assay with pneumococcal neuraminidase; format: biochemical; conditions: ethanol-precipitated proteins of S. pneumoniae DSM20566, lectin-based hemagglutination assay
T1 sequence (P62575 54-1035): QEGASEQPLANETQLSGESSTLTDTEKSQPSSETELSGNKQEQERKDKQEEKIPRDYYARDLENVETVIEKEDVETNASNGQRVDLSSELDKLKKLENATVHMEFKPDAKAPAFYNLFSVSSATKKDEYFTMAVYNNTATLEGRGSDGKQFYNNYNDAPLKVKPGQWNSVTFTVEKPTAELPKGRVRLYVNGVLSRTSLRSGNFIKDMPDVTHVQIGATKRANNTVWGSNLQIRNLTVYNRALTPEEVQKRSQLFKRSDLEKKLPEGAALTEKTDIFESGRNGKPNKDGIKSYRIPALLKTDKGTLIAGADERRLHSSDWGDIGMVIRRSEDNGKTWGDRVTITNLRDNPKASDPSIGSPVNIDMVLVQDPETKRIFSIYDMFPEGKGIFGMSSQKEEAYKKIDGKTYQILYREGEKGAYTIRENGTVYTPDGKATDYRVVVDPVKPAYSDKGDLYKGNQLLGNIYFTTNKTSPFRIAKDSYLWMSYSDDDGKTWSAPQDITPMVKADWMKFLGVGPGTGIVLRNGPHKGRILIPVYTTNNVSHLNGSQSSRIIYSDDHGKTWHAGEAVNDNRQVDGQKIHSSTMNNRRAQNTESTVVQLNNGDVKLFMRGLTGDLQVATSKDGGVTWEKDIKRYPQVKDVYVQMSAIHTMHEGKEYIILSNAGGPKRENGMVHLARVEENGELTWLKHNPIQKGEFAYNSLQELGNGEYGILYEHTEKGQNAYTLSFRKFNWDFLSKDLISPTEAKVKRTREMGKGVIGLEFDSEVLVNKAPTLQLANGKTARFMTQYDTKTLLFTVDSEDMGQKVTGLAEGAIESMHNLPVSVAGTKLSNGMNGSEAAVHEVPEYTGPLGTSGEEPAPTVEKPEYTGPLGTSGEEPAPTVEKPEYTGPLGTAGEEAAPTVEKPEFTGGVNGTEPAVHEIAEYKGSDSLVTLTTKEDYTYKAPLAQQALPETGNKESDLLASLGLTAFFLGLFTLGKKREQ

S. pneumoniae DSM20566 = assay: Biofilm formation inhibition assay (crystal violet); format: cell-based, Streptococcus pneumoniae; conditions: Streptococcus pneumoniae; S. pneumoniae DSM20566, 24 h, crystal violet, maximum 50 μM; read-out: IC50 Biofilm formation
in vitro = conditions: dog
[4] = system: influenza A virus A/HK/1/68 (subtype H3N2); assay: Influenza A virus-induced CPE inhibition assay in MDCK cells (A/HK/1/68); format: cell-based; conditions: H3N2, 48 h, maximum 100 µM, n.a. = not active, read-out: IC50 (IAV) HK/1/68
viral hemagglutinin = viral hemagglutinin (Influenza A virus, UniProt C3W5S1); assay: Human erythrocyte-based assay, inhibition of viral hemagglutinin-induced hemagglutination at 4 °C; format: biochemical; conditions: human erythrocytes, influenza A virus A/Jena/8178/09
viral hemagglutinin, sequence (C3W5S1 18-344 limits assumed): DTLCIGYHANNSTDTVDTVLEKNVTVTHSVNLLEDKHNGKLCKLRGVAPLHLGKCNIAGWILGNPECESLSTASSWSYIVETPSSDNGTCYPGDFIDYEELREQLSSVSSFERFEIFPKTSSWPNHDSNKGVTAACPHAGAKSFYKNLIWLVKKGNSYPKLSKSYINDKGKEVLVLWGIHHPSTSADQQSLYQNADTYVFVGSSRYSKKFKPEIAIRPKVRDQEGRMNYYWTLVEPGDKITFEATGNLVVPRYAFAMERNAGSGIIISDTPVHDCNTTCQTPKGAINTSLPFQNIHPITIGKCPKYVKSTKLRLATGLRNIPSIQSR
viral hemagglutinin, sequence (C3W5S1 345-566 limits assumed): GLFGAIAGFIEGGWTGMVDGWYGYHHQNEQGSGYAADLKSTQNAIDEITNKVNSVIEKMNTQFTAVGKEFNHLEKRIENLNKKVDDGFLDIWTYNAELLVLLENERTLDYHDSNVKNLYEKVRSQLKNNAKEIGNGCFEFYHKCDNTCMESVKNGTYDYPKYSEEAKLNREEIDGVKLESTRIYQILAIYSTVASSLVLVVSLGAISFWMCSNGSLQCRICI

MDCK cells = conditions: read-out: CC50 (MDCK), 72 h incubation, maximum 100 µM
[5] = molecular target: T1, neuraminidase NanA of S. pneumoniae strain DSM20566; conditions: Published; cited from earlier work

Compound	IC50 ([1]; Influenza A virus) [µM]	MIC IAV NA (minimum neuraminidase inhibitory concentration) [2]	MIC S.p. NanA (minimum neuraminidase inhibitory concentration) [3]	CC50 at 72 h (in vitro) [µM]	IC50 ([4]; Influenza A virus) [µM]	also measured
CCOC(=O)c1c(C)[nH]c2c1cc(O)c1c2c(-c2ccc(-n3cccc3)cc2)nn1-c1ccccc1 [Compound 14]	11.4	24.40 µM (≈ 11.6 µg/mL)	10.0 µM and 10.00 µM	> 100		IC50 (S. pneumoniae DSM20566): 28 µM
CCOC(=O)c1c(C)[nH]c2c1cc(O)c1c2c(-c2ccc(N)cc2)nn1-c1ccccc1 [Compound 12]	15.7	21.40 µM (≈ 9.13 µg/mL)	10.0 µM and 10.00 µM	> 100	8.54	
CCOC(=O)c1c(C)n(C)c2c1cc(O)c1c2c(-c2ccc([N+](=O)[O-])cc2)nn1-c1ccccc1 [Compound 6f, 5-Hydroxy-3-ethoxycarbonyl-1,2-dimethyl-8-(4-nitrophenyl)-6-phenyl-pyrrolo[2,3-e]indazole]		77.20 µM (≈ 36.3 µg/mL)	31.60 µM (≈ 14.9 µg/mL)	> 100	42.5	melting point: 258 to 261 °C
CCOC(=O)c1c(CN2CCCCC2)n(C)c2c1cc(OC(C)=O)c1c2c(-c2ccccc2)nn1-c1ccccc1 [Compound 9a]		does not inhibit	54.40 µM (≈ 30 µg/mL)	> 100		melting point: 203 to 205 °C
CCOC(=O)c1c(C)[nH]c2c1cc(OC(C)=O)c1c2c(-c2ccc(N)cc2)nn1-c1ccccc1 [Compound 13]	14.1	14.20 µM (≈ 6.65 µg/mL)		> 100	9.39	Inhibition of hemagglutination (concentration) (viral hemagglutinin): 31.6 µM
5-hydroxy-3-ethoxycarbonyl-2-methyl-6,8-diphenyl-pyrrolo[2,3-e]indazole [Compound 6a]		70.00 µM	31.60 µM			CC50 (MDCK cells): > 100 µM
CCOC(=O)c1c(C)n(C)c2c1cc(OC)c1c2c(-c2ccc([N+](=O)[O-])cc2)nn1-c1ccccc1 [Compound 11a]	21.5	24.40 µM (≈ 11.8 µg/mL)	31.60 µM (≈ 15.3 µg/mL)	> 100		
CCOC(=O)c1c(C)n(CC)c2c1cc(OCC)c1c2c(-c2ccc([N+](=O)[O-])cc2)nn1-c1ccccc1 [Compound 11b]	25.5	77.20 µM (≈ 39.6 µg/mL)	54.40 µM (≈ 27.9 µg/mL)			melting point: 175 to 177 °C; CC50 (in vitro): > 100 µM
CCOC(=O)c1c(C)[nH]c2c1cc(OCC)c1c2c(-c2ccc([N+](=O)[O-])cc2)nn1-c1ccccc1 [Compound 11c]	30.3	47.20 µM (≈ 22.9 µg/mL)	54.40 µM (≈ 26.4 µg/mL)	> 100		
CCOC(=O)c1c(C)[nH]c2c1cc(O)c1c2c(-c2cc(Cl)cc(Cl)c2)nn1-c1ccccc1 [Compound 6k]				> 100	30.2	
CCOC(=O)c1c(C)n(Cc2ccccc2)c2c1cc(OC(C)=O)c1c2c(-c2ccccc2)nn1-c1ccccc1 [Compound 7b]	38.7	100.00 µM (≈ 54.4 µg/mL)	31.60 µM (≈ 17.2 µg/mL)			CC50 (in vitro): > 100 µM
CC(=O)N[C@H]1[C@H]([C@H](O)[C@H](O)CO)OC(C(=O)O)=C[C@@H]1N=C(N)N [Zanamivir, zanamivir, reference compound]	0.11	3.16 µM (≈ 1.05 µg/mL)				
CCOC(=O)C1=C[C@@H](OC(CC)CC)[C@H](NC(C)=O)[C@@H](N)C1 [Oseltamivir, oseltamivir, reference compound]		1.97 µM (≈ 0.615 µg/mL)				IC50 [4]: 0.004 µM; IC50 [1]: 0.14 µM; MIC S.p. NanA (minimum neuraminidase inhibitory concentration) [5]: 2.08 ^a μM
